Laboratory results as given in patent US11672803B2, “Use of inhibitors of Brutons tyrosine kinase (Btk)” (priority 2010, dated 2023).

Assays:
DoHH2 cells = experiment: Alamar blue assay in DoHH2 cells; format: cell-based; conditions: DLBCL cell line from a transformed follicular lymphoma patient
Source text: DOHH2 is a DLBCL (diffuse large B-cell lymphoma) cell line, from a transformed follicular lymphoma patient.
Assay was an alamar blue assay.

[1] = tested on: individuals with mantle cell lymphoma; experiment: Absolute lymphocyte count vs cycle day in individuals with mantle cell lymphoma; format: in vivo, human
Procedure: Patients 32006, 38003, and 38004 were treated on schedule of 4 weeks on treatment followed by one week off. Thus, day 1 of each cycle follows one week off drug for these patients. The other patients were treated with continuous daily dosing.

[2] = tested on: individuals with follicular lymphoma; experiment: Absolute lymphocyte count / B cell mobilization vs cycle day in individuals with follicular lymphoma; format: in vivo, human
Procedure: All Patients (except Pt 32009) were treated on schedule of 4 weeks on treatment followed by one week off. Thus, day 1 of each cycle follows one week off drug for these patients.
All Patients were treated on schedule of 4 weeks on treatment followed by one week off. Thus, day 1 of each cycle follows one week off drug for these patients.
All Patients except 38010 were treated on schedule of 4 weeks on treatment followed by one week off. Thus, day 1 of each cycle follows one week off drug for these patients.

individuals with DLBCL = experiment: Absolute lymphocyte count vs cycle day in individuals with DLBCL; format: in vivo, human; conditions: PD individuals, FIG. 11
Procedure: Patient 38011 was treated on schedule of 4 weeks on treatment followed by one week off. Thus, day 1 of each cycle follows one week off drug for this patient. Patients 38008 and 324001 were treated with continuous daily doses.
All Patients were treated on schedule of 4 weeks on treatment followed by one week off. Thus, day 1 of each cycle follows one week off drug for these patients. […] Patient 32002 received only one cycle of treatment.

C=CC(=O)N1CCC[C@@H](n2nc(-c3ccc(Oc4ccccc4)cc3)c3c(N)ncnc32)C1 [Btk inhibitor, (R)-1-(3-(4-amino-3-(4-phenoxyphenyl)-1H-pyrazolo[3,4-d]pyrimidin-1-yl)piperidin-1-yl)prop-2-en-1-one]
Sensitivity of DOHH2 cell line (DoHH2 cells): moderately sensitive
Lymphocyte mobilization (ALC) ([1]; patient with initial PD (32014), FIG. 12): failed to show mobilization
Lymphocyte mobilization (ALC) ([1]; responding patients, FIG. 13): all responding patients showed some degree of mobilization
B cell fraction change by cycle ([2]; Patient 32007, Cohort 4, follicular lymphoma grade 3, regressed from SD to CR, FIG. 14): characteristic cyclic increases
Lymphocyte mobilization (ALC) ([2]; follicular lymphoma, PD individuals, FIG. 9): lack of mobilization
Absolute lymphocyte count (ALC) change by cycle ([2]; follicular lymphoma, complete or partial response (CR/PR), 4 weeks on, 1 week off, FIG. 7): increases of ALC during most cycles of most patients
Lymphocyte mobilization (ALC) (individuals with DLBCL): lack of mobilization for 3 of the 4 patients
